In patent US9226498B2:
Read-outs that look alike come from different tables or passages of the source.

Legend:
[1] = system: tame oats (AVESA); assay: Trial III field trial, postemergence crop injury; format: in vivo, Avena sativa
[2] = system: tame oats (AVESA); assay: Trial IV field trial, postemergence crop injury; format: in vivo, Avena sativa
[3] = system: spring barley (HORVS); assay: Trial IV cont. field trial, postemergence crop injury; format: in vivo, Hordeum vulgare L
[4] = system: spring barley (HORVS); assay: Trial V field trial, postemergence crop injury; format: in vivo, Hordeum vulgare L
[5] = system: spring wheat (TRZAS); conditions: Trial I
Excerpt: (§1) Five small plot field trials were established across various ecozones to evaluate the crop safety of florasulam and 4-amino-3-chloro-6-(4-chloro-2-fluoro-3-methoxy-phenyl)pyridine-2-carboxylic acid TEA (triethylamine) salt or of florasulam and 4-amino-3-chloro-6-(4-chloro-2-fluoro-3-methoxyphenyl)pyridine-2-carboxylic acid methyl ester, when applied alone or in combination, on spring cereals including spring wheat, spring barley and tame oats.
(§2) In Trials III, IV, and V the methyl ester of the compound of formula (I) was applied alone at rates of 5-10 g ae/ha using a formulation containing 200 grams acid equivalent per kilogram (g ae/kg) of the methyl ester with 0.5% v/v Turbocharge adjuvant. […] All herbicide treatments were applied post-emergence in the spring to early summer Herbicides were applied with bicycle- or tractor-mounted sprayers using carbon dioxide (CO2) as a propellant. The sprayers delivered a uniform spray pattern that provided thorough coverage of the foliage using a 100 liter per hectare (L/ha) spray volume. At the time of herbicide applications, spring barley, spring wheat and tame oats were at the two leaf stage to the seven leaf, three tiller stage. Phytotoxicity to cereal crops was visually assessed as percent overall injury, compared to an untreated control plot. The overall injury assessments were based on visual ratings of growth inhibition, chlorosis, and delay in maturity. At late ratings, percent visual seed head deformity was also assessed. Trials were designed as randomized complete blocks with four replicates. In general, three to four replicates were assessed for each treatment.
(§3) Colby's equation is: Expected=A+B−(A×B/100) • A=observed efficacy of active ingredient A at the same concentration as used in the mixture; • B=observed efficacy of active ingredient B at the same concentration as used in the mixture.

[6] = system: spring wheat (TRZAS); conditions: Trial II
Excerpt: as §1, §2, §3

## COC(=O)c1nc(-c2ccc(Cl)c(OC)c2F)cc(N)c1Cl [Compound II]
[1]; Compound II 5 g ae/ha alone
  Percent (%) Visual Head Deformity 70 DAT Obs: 7.5 cd %
  Percent (%) Visual Injury 7 DAT Obs: 0.0 d %
  Percent (%) Visual Injury 16 DAT Obs: 2.5 de %
  Percent (%) Visual Injury 31 DAT Obs: 5.0 fg %
  Percent (%) Visual Injury 70 DAT Obs: 15.8 def %
[1]; Compound II 10 g ae/ha alone
  Percent (%) Visual Head Deformity 70 DAT Obs: 15.0 bcd %
  Percent (%) Visual Injury 7 DAT Obs: 0.0 d %
  Percent (%) Visual Injury 16 DAT Obs: 13.8 cde %
  Percent (%) Visual Injury 31 DAT Obs: 25.0 de %
  Percent (%) Visual Injury 70 DAT Obs: 33.8 bcd %
[2]; Compound II 5 g ae/ha alone
  Percent (%) Visual Injury 7 DAT Observed: 0.0 d %
  Percent (%) Visual Injury 14 DAT Observed: 2.0 cde %
  Percent (%) Visual Injury 28 DAT Observed: 3.3 de %
  Percent (%) Visual Injury 53 DAT Observed: 2.5 fgh %
[2]; Compound II 10 g ae/ha alone
  Percent (%) Visual Injury 7 DAT Observed: 1.3 bcd %
  Percent (%) Visual Injury 14 DAT Observed: 9.5 abc %
  Percent (%) Visual Injury 28 DAT Observed: 14.5 ab %
  Percent (%) Visual Injury 53 DAT Observed: 9.4 abc %
[3]; Compound II 5 g ae/ha alone
  Percent (%) Visual Head Deformity Obs: 0.0 a %
  Percent (%) Visual Injury 7 DAT Obs: 0.0 e %
  Percent (%) Visual Injury 14 DAT Obs: 0.0 c %
  Percent (%) Visual Injury 28 DAT Obs: 3.3 de %
  Percent (%) Visual Injury 70 DAT Obs: 2.5 fgh %
[3]; Compound II 10 g ae/ha alone
  Percent (%) Visual Head Deformity Obs: 1.3 a %
  Percent (%) Visual Injury 7 DAT Obs: 0.0 e %
  Percent (%) Visual Injury 14 DAT Obs: 0.0 c %
  Percent (%) Visual Injury 28 DAT Obs: 14.5 ab %
  Percent (%) Visual Injury 70 DAT Obs: 9.4 abc %
[4]; Compound II 5 g ae/ha alone
  Percent (%) Head Deformity 64 DAT Obs: 0.3 b %
  Percent (%) Injury Visual 15 DAT Obs: 0.5 a %
  Percent (%) Visual Injury 27 DAT Obs: 1.0 c %
  Percent (%) Visual Injury 49 DAT Obs: 0.0 c %
[4]; Compound II 10 g ae/ha alone
  Percent (%) Head Deformity 64 DAT Obs: 21.8 ab %
  Percent (%) Injury Visual 15 DAT Obs: 0.5 a %
  Percent (%) Visual Injury 27 DAT Obs: 0.0 c %
  Percent (%) Visual Injury 49 DAT Obs: 0.5 bc %

## COc1ncc(F)c2nc(S(=O)(=O)Nc3c(F)cccc3F)nn12 [Florasulam, 2′,6′,8-trifluoro-5-methoxy[1,2,4]triazolo[1,5-c]pyrimidine-2-sulfonanilide, reference compound]
[5]; Florasulam 5 g ai/ha alone
  Percent (%) Visual Incidence Head Deformity 71 DAT Obs: 0.0 g %
  Percent (%) Visual Injury 71 DAT Obs: 0 e %
[6]; Florasulam 5 g ai/ha alone
  Percent (%) Visual Incidence Head Deformity 55 DAT Obs: 0.0 e %
  Percent (%) Visual Injury 55 DAT Obs: 0.0 e %

## COc1c(Cl)ccc(-c2cc(N)c(Cl)c(C(=O)O)n2)c1F [Compound I]
[5]; Compound I 17.5 g ae/ha alone
  Percent (%) Visual Incidence Head Deformity 71 DAT Obs: 20 d-g %
  Percent (%) Visual Injury 71 DAT Obs: 12.5 cd %
[5]; Compound I 35 g ae/ha alone
  Percent (%) Visual Incidence Head Deformity 71 DAT Obs: 60 a %
  Percent (%) Visual Injury 71 DAT Obs: 32.5 a %
[6]; Compound I 17.5 g ae/ha alone
  Percent (%) Visual Incidence Head Deformity 55 DAT Obs: 7.5 cde %
  Percent (%) Visual Injury 55 DAT Obs: 5.8 de %
[6]; Compound I 35 g ae/ha alone
  Percent (%) Visual Incidence Head Deformity 55 DAT Obs: 43.8 ab %
  Percent (%) Visual Injury 55 DAT Obs: 35 a %
